Source: patent US9556165B2 (priority 2012, dated 2017)
Values after ≈ are worked out from the molar mass of the structure shown. Where two headings read alike, the source gives them in different places.

Tests used:
Type in all cases: cell-based
E. coli ATCC25922 = test: MIC determination, broth microdilution (CLSI); conditions: for MIC: Escherichia coli, ATCC25922, strain 1
K. pneumoniae 60 = test: MIC determination, broth microdilution (CLSI); conditions: for MIC: Klebsiella pneumoniae, 60, strain 2
E. cloacae 34654 = test: MIC determination, broth microdilution (CLSI); conditions: for MIC: Enterobacter cloacae, 34654, strain 3
C. freundii K21/3034 = test: MIC determination, broth microdilution (CLSI); conditions: for MIC: Citrobacter freundii, K21/3034, strain 4
M. morganii 126/3048 = test: MIC determination, broth microdilution (CLSI); conditions: for MIC: Morganella morganii, 126/3048, strain 5
P. aeruginosa PAO1 = test: MIC determination, broth microdilution (CLSI); conditions: Pseudomonas aeruginosa, PAO1, strain 6
[1] = system: P. aeruginosa 2297 (AmpC wt); test: MIC determination, broth microdilution (CLSI); conditions: Pseudomonas aeruginosa, strain 7
[2] = system: P. aeruginosa 2297-con (AmpC derepressed); test: MIC determination, broth microdilution (CLSI); conditions: Pseudomonas aeruginosa, read-out: strain 8 MIC, strain 8
A. baumannii ATCC15308 = test: MIC determination, broth microdilution (CLSI); conditions: for MIC: Acinetobacter baumannii, ATCC15308, strain 9
S. maltophilia ICB7569 = test: MIC determination, broth microdilution (CLSI); conditions: for MIC: Stenotrophomonas maltophilia, ICB7569, strain 10
S. aureus 133 = test: MIC determination, broth microdilution (CLSI)
H. influenzae ATCC 49247 = test: MIC determination, broth microdilution (CLSI); conditions: broth microdilution; for MIC: Haemophilus influenzae, ATCC49247, strain 12, read-out: MIC strain 12 (H. influenzae ATCC 49247)
S. pneumoniae 113 = test: MIC determination, broth microdilution (CLSI); conditions: broth microdilution; for MIC: Streptococcus pneumoniae, 113, strain 13, read-out: MIC strain 13 (S. pneumoniae 113)
B. fragilis 6688 = test: MIC determination, broth microdilution (CLSI); conditions: broth microdilution; for MIC: Bacteroides fragilis, 6688, strain 15, read-out: MIC strain 15 (B. fragilis 6688)
C. perfringens DSM756 = test: microbe, parasite or virus in culture; conditions: broth microdilution; for MIC: Clostridium perfringens, DSM756, read-out: MIC strain 16 (C. perfringens DSM756), strain 16
E. coli J62 = test: MIC determination, broth microdilution (CLSI); conditions: broth microdilution; for MIC: Escherichia coli, J62, strain 17, read-out: MIC strain 17 (E. coli J62)
E. coli J62-TEM-3 = test: MIC determination, broth microdilution (CLSI); conditions: broth microdilution; for MIC: Escherichia coli, J62TEM3, read-out: MIC strain 18 (E. coli J62-TEM-3), strain 18
Bacteria = test: MIC determination in combination with β-lactamase inhibitors (constant 4 μg/mL)
[3] = Staphylococcus aureus, 133, strain 11, read-out: strain 11 MIC
[4] = Staphylococcus aureus, 133, strain 14, broth microdilution, read-out: MIC strain 14 (S. aureus 133)

SMILES	MIC (E. coli ATCC25922)	MIC (K. pneumoniae 60)	MIC (E. cloacae 34654)	MIC (C. freundii K21/3034)	MIC (M. morganii 126/3048)	MIC (P. aeruginosa PAO1)	MIC [1]	MIC [2]	MIC (A. baumannii ATCC15308)	MIC (S. maltophilia ICB7569)	MIC (S. aureus 133; [3])	MIC (H. influenzae ATCC 49247)	MIC (S. pneumoniae 113)	MIC (B. fragilis 6688)	MIC (C. perfringens DSM756)	MIC (E. coli J62)	MIC (E. coli J62-TEM-3)	MIC strain 19 (E. coli J62-TEM-3 + 4 μg/mL clavulanic acid) (Bacteria)	MIC strain 20 (E. coli J62-TEM-3 + 4 μg/mL sulbactam) (Bacteria)	MIC strain 21 (E. coli J62-TEM-3 + 4 μg/mL tazobactam) (Bacteria)	other results
CC1(C)[C@H](NC(=O)/C(=N\OCCOc2ccc(C3=NCC(CN)N3)cc2)c2csc(N)n2)C(=O)N1OS(=O)(=O)O (stereo partly drawn) [Example 91, (2Z)-2-[(2-{4-[5-(Aminomethyl)-4,5-dihydro-1H-imidazol-2-yl]phenoxy}ethoxy)imino]-2-(2-amino-1,3-thiazol-4-yl)-N-[(3S)-2,2-dimethyl-4-oxo-1-(sulfooxy)azetidin-3-yl]ethanamide]	0.125 µg/mL (≈ 0.21 µM)	0.125 µg/mL (≈ 0.21 µM)	0.25 µg/mL (≈ 0.419 µM)	0.125 µg/mL (≈ 0.21 µM)	0.25 µg/mL (≈ 0.419 µM)	2 µg/mL (≈ 3.35 µM)	4 µg/mL (≈ 6.7 µM)	2 µg/mL (≈ 3.35 µM)	1 µg/mL (≈ 1.68 µM)	16 µg/mL (≈ 26.8 µM)	≤ 0.063 µg/mL	≤ 0.063 µg/mL	≤ 0.063 µg/mL	4 µg/mL (≈ 6.7 µM)	2 µg/mL (≈ 3.35 µM)	0.125 µg/mL (≈ 0.21 µM)	4 µg/mL (≈ 6.7 µM)	0.125 µg/mL	0.125 µg/mL	0.125 µg/mL	MIC (S. aureus 133; [4]): 2 µg/mL (≈ 3.35 µM)
CC1(C)[C@H](NC(=O)/C(=N\OCCOc2ccc(C(=N)NCc3ccccn3)cc2)c2csc(N)n2)C(=O)N1OS(=O)(=O)O [Example 76, (2Z)-2-(2-Amino-1,3-thiazol-4-yl)-N-[(3S)-2,2-dimethyl-4-oxo-1-(sulfooxy)azetidin-3-yl]-2-[(2-{4-[N-(pyridin-2-ylmethyl)carbamimidoyl]phenoxy}ethoxy)imino]ethanamide]	0.5 µg/mL (≈ 0.79 µM)	0.5 µg/mL (≈ 0.79 µM)	1 µg/mL (≈ 1.58 µM)	0.5 µg/mL (≈ 0.79 µM)	1 µg/mL (≈ 1.58 µM)	16 µg/mL (≈ 25.3 µM)	16 µg/mL (≈ 25.3 µM)	32 µg/mL (≈ 50.6 µM)	4 µg/mL (≈ 6.32 µM)	16 µg/mL (≈ 25.3 µM)	≤ 0.063 µg/mL	0.25 µg/mL (≈ 0.395 µM)	≤ 0.063 µg/mL	4 µg/mL (≈ 6.32 µM)	2 µg/mL (≈ 3.16 µM)	0.5 µg/mL (≈ 0.79 µM)	8 µg/mL (≈ 12.6 µM)	0.5 µg/mL	0.5 µg/mL	0.5 µg/mL	MIC (S. aureus 133; [4]): 4 µg/mL (≈ 6.32 µM)
CC1(C)[C@H](NC(=O)/C(=N\OCCOc2ccc(C(=N)N)cc2)c2csc(N)n2)C(=O)N1OS(=O)(=O)O [Example 41, (2Z)-2-(2-Amino-1,3-thiazol-4-yl)-2-{[2-(4-carbamimidoylphenoxy)ethoxy]imino}-N-[(3S)-2,2-dimethyl-4-oxo-1-(sulfooxy)azetidin-3-yl]ethanamide]	0.25 µg/mL (≈ 0.462 µM)	0.5 µg/mL (≈ 0.923 µM)	0.25 µg/mL (≈ 0.462 µM)	0.125 µg/mL (≈ 0.231 µM)	0.25 µg/mL (≈ 0.462 µM)	4 µg/mL (≈ 7.39 µM)	4 µg/mL (≈ 7.39 µM)	4 µg/mL (≈ 7.39 µM)	1 µg/mL (≈ 1.85 µM)	4 µg/mL (≈ 7.39 µM)	≤ 0.063 µg/mL	≤ 0.063 µg/mL	≤ 0.063 µg/mL	2 µg/mL (≈ 3.69 µM)	1 µg/mL (≈ 1.85 µM)	0.25 µg/mL (≈ 0.462 µM)	8 µg/mL (≈ 14.8 µM)	0.25 µg/mL	0.25 µg/mL	0.25 µg/mL	MIC (S. aureus 133; [4]): 4 µg/mL (≈ 7.39 µM)
CC1(C)[C@H](NC(=O)/C(=N\OC(CCO)COc2ccc(C(=N)N)cc2)c2csc(N)n2)C(=O)N1OS(=O)(=O)O (single isomer, unassigned) [Example 81B]	–	–	–	–	–	–	–	–	–	–	–	–	–	–	–	–	–	4 µg/mL	4 µg/mL	4 µg/mL	strain 1 MIC (E. coli ATCC25922): 2 µg/mL; strain 2 MIC (K. pneumoniae 60; strain 2): 4 µg/mL; strain 3 MIC (E. cloacae 34654): 4 µg/mL; strain 4 MIC (C. freundii K21/3034; strain 4): 2 µg/mL; strain 5 MIC (M. morganii 126/3048; strain 5): 4 µg/mL; strain 9 MIC (A. baumannii ATCC15308; strain 9): 8 µg/mL; strain 10 MIC (S. maltophilia ICB7569; strain 10): 16 µg/mL; MIC strain 14 (S. aureus 133) (S. aureus 133; strain 14, broth microdilution): 32 µg/mL (≈ 54.6 µM); MIC strain 12 (H. influenzae ATCC 49247) (H. influenzae ATCC 49247; strain 12): 2 µg/mL (≈ 3.42 µM); MIC strain 13 (S. pneumoniae 113) (S. pneumoniae 113; strain 13): 0.125 µg/mL (≈ 0.213 µM); MIC strain 15 (B. fragilis 6688) (B. fragilis 6688; strain 15): 16 µg/mL (≈ 27.3 µM); MIC strain 16 (C. perfringens DSM756) (C. perfringens DSM756; strain 16): 4 µg/mL (≈ 6.83 µM); MIC strain 17 (E. coli J62) (E. coli J62; strain 17): 4 µg/mL (≈ 6.83 µM); MIC strain 18 (E. coli J62-TEM-3) (E. coli J62-TEM-3): 4 µg/mL (≈ 6.83 µM)
CC1(C)[C@H](NC(=O)/C(=N\OCCOc2ccc(C(=N)N)cc2)c2csc(N)n2)C(=O)N1OCS(=O)(=O)O [Example 90]	0.5 µg/mL (≈ 0.9 µM)	–	1 µg/mL (≈ 1.8 µM)	0.25 µg/mL (≈ 0.45 µM)	0.5 µg/mL (≈ 0.9 µM)	32 µg/mL (≈ 57.6 µM)	32 µg/mL (≈ 57.6 µM)	32 µg/mL (≈ 57.6 µM)	–	4 µg/mL (≈ 7.2 µM)	0.5 µg/mL (≈ 0.9 µM)	0.5 µg/mL (≈ 0.9 µM)	0.5 µg/mL (≈ 0.9 µM)	4 µg/mL (≈ 7.2 µM)	16 µg/mL (≈ 28.8 µM)	1 µg/mL (≈ 1.8 µM)	0.5 µg/mL (≈ 0.9 µM)	0.5 µg/mL	0.5 µg/mL	1 µg/mL	–
CC1(C)[C@H](NC(=O)/C(=N\OC(COc2ccc(C(=N)N)cc2)CC(=O)O)c2csc(N)n2)C(=O)N1OS(=O)(=O)O (mixture of isomers) [Example 46, 3-({[(1Z)-1-(2-Amino-1,3-thiazol-4-yl)-2-{[(3S)-2,2-dimethyl-4-oxo-1-(sulfooxy)azetidin-3-yl]amino}-2-oxoethylidene]amino}oxy)-4-(4-carbamimidoylphenoxy)butanoic acid]	2 µg/mL	1 µg/mL	2 µg/mL	1 µg/mL	1 µg/mL	8 µg/mL	32 µg/mL	32 µg/mL	16 µg/mL	8 µg/mL	–	0.25 µg/mL	1 µg/mL	32 µg/mL	4 µg/mL	2 µg/mL	16 µg/mL	1 µg/mL	1 µg/mL	1 µg/mL	–
CC1(C)[C@H](NC(=O)/C(=N\OC(CCO)COc2ccc(C(=N)N)cc2)c2csc(N)n2)C(=O)N1OS(=O)(=O)O (single isomer, unassigned) [Example 81A]	4 µg/mL (≈ 6.83 µM)	8 µg/mL (≈ 13.7 µM)	–	4 µg/mL (≈ 6.83 µM)	8 µg/mL (≈ 13.7 µM)	–	–	–	8 µg/mL (≈ 13.7 µM)	16 µg/mL (≈ 27.3 µM)	–	2 µg/mL (≈ 3.42 µM)	0.25 µg/mL (≈ 0.427 µM)	16 µg/mL (≈ 27.3 µM)	8 µg/mL (≈ 13.7 µM)	8 µg/mL (≈ 13.7 µM)	–	8 µg/mL	8 µg/mL	8 µg/mL	strain 3 MIC (E. cloacae 34654): 16 µg/mL; MIC (S. aureus 133; [4]): 32 µg/mL (≈ 54.6 µM); MIC strain 18 (E. coli J62-TEM-3) (E. coli J62-TEM-3): 32 µg/mL (≈ 54.6 µM)
CC1(C)[C@H](NC(=O)/C(=N\O[C@@H](COc2ccc(C(=N)NCc3ncc[nH]3)cc2)C(=O)O)c2csc(N)n2)C(=O)N1OS(=O)(=O)O [Example 104, (2S)-2-({[(1Z)-1-(2-Amino-1,3-thiazol-4-yl)-2-{[(3S)-2,2-dimethyl-4-oxo-1-(sulfooxy)azetidin-3-yl]amino}-2-oxoethylidene]amino}oxy)-3-{4-[N-(1H-imidazol-2-ylmeth-yl)carbamimidoyl]phenoxy}propanoic acid]	–	1 µg/mL (≈ 1.5 µM)	1 µg/mL (≈ 1.5 µM)	1 µg/mL (≈ 1.5 µM)	0.5 µg/mL (≈ 0.751 µM)	16 µg/mL (≈ 24 µM)	–	–	–	16 µg/mL (≈ 24 µM)	≤ 0.063 µg/mL	≤ 0.063 µg/mL	1 µg/mL (≈ 1.5 µM)	–	8 µg/mL (≈ 12 µM)	1 µg/mL (≈ 1.5 µM)	32 µg/mL (≈ 48.1 µM)	1 µg/mL	1 µg/mL	1 µg/mL	strain 1 MIC (E. coli ATCC25922): 1 µg/mL
